Data reported in PMC4388511 (PLoS ONE, 2015).
Like-named read-outs stand apart in the source and are kept apart here.

Assays:
[1] = molecular target: T1, serotonin 5-HT2C receptor (Homo sapiens, UniProt P28335); assay: facilitation of morphine-induced MOP-YFP endocytosis in HEK293 cells co-expressing 5-HT2C, at […]; assay type: cell-based
T1 construct: gene HTR2C; c-myc-5-HT2C-Cerulean

[2] = molecular target: T1, serotonin 5-HT2C receptor; assay: as above; assay type: cell-based; remark: listed apart in the source

T1 sequence (P28335 33-458): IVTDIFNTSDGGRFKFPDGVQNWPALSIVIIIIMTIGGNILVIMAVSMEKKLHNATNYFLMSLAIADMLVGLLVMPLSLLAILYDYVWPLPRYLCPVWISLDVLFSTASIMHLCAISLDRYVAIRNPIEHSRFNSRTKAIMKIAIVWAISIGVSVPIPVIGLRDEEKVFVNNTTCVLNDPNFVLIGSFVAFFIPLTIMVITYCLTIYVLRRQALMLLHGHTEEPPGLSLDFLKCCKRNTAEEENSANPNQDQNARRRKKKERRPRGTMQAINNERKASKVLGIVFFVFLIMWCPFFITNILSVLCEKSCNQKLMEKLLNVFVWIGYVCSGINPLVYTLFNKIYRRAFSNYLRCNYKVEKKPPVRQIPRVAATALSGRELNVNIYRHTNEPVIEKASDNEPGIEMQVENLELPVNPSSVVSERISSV
T1 sequence (P35372 whole entry partner): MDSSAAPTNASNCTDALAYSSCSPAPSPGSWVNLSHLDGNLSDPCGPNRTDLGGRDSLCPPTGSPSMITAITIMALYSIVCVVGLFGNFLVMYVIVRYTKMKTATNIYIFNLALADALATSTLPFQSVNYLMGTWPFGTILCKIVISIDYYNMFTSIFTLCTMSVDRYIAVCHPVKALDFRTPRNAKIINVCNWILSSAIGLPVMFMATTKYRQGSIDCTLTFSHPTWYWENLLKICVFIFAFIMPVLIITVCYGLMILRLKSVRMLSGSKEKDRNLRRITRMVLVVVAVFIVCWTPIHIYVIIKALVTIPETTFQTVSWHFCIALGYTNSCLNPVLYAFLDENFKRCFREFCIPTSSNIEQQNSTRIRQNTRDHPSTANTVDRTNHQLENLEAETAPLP

Compound | Emax (no. vesicles/cell) [1] | Emax (no. vesicles/cell) [2]
COc1cc(CC(C)N)c(OC)cc1I (racemic) [DOI] | 8.18 ± 1.31 vesicles/cell (Emax, with morphine) | 
O=C1Nc2cc(Cl)c(Cl)cc2N2CCNCC12 (centres unmarked) [WAY161503] |  | 9.08 ± 1.88 vesicles/cell (Emax, with morphine)
